Laboratory results as given in ChEMBL document CHEMBL1201862, “PubChem BioAssay data set” (2004).
Active and inactive are the calls of the source.

What was measured:
[1] = THP-1 cell cytotoxicity, dose response, cytotoxicity control for non-replicating M. tuberculosis project (AID 489025); assay type: functional
H4 = experiment: Luminescence Cell-Based Dose Response HTS to Identify Activators of 5'UTR Stem-Loop Driven Prion Protein mRNA Translation in H4 Neuroglioblastoma Cells. [Related pubchem assays: 1829 (Project Summary), 1814 (Primary HTS)]; assay type: functional; details: Homo sapiens
[2] = Luminescence Cell-Based Dose Response HTS to Identify Activators of Luciferase Translation or Activity in H4 […] Cells. [Related pubchem assays: 1829 (Project Summary), 1814 (Primary HTS)]; assay type: functional
[3] = molecular target: T1, DNA repair protein RAD52 homolog (Homo sapiens, UniProt P43351); assay type: functional, biochemical
T1 sequence (P43351 whole entry): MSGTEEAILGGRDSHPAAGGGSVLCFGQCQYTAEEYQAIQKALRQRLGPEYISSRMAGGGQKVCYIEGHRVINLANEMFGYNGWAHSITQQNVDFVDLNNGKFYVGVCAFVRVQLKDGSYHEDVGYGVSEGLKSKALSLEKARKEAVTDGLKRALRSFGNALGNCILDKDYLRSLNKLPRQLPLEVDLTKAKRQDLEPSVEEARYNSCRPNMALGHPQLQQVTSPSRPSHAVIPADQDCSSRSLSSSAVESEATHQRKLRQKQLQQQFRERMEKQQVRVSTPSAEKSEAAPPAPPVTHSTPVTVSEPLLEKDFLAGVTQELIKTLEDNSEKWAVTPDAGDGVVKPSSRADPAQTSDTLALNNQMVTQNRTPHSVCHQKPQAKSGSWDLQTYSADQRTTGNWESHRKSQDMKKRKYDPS

[4] = molecular target: Glyceraldehyde-3-phosphate dehydrogenase (Homo sapiens, UniProt P04406)
Sequence of Glyceraldehyde-3-phosphate dehydrogenase (P04406 whole entry): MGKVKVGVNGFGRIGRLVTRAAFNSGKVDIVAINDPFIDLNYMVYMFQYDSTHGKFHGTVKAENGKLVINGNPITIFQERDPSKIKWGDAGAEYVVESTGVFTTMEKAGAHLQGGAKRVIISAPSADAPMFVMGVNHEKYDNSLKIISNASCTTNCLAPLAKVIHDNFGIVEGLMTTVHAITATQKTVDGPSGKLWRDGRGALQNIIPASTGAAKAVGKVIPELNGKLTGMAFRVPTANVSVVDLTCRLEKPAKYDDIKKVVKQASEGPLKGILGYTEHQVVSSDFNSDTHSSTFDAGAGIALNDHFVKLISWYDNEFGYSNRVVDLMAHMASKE

[5] = molecular target: T2, Calpain-2 catalytic subunit (Sus scrofa, UniProt P43367); experiment: m-calpain protease blockers, concentration series – biochemical, fluorogenic peptide substrate, dose response (AID 1420); assay type: functional
T2 sequence (P43367 whole entry): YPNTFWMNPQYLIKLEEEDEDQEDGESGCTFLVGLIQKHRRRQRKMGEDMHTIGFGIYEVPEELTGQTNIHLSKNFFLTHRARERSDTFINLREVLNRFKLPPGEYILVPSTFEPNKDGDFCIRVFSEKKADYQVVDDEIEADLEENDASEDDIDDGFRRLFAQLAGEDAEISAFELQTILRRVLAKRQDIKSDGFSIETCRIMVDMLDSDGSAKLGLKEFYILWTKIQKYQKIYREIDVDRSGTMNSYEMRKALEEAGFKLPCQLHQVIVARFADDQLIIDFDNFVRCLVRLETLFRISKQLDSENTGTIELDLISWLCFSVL

[6] = molecular target: T3, Heat shock factor protein 1 (Mus musculus, UniProt P38532); experiment: decrease of HSF1-responsive luciferase luminescence – cell-based, NIH3T3, dose retest, confirmation (AID 2382); assay type: functional;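 further: NIH3T3 fibroblasts with HSF1-driven luciferase reporter stressed by proteasome inhibitor MG132; luminescence from HSF1-driven luciferase expression after 8 hours of MG132 stress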
T3 sequence (P38532 whole entry): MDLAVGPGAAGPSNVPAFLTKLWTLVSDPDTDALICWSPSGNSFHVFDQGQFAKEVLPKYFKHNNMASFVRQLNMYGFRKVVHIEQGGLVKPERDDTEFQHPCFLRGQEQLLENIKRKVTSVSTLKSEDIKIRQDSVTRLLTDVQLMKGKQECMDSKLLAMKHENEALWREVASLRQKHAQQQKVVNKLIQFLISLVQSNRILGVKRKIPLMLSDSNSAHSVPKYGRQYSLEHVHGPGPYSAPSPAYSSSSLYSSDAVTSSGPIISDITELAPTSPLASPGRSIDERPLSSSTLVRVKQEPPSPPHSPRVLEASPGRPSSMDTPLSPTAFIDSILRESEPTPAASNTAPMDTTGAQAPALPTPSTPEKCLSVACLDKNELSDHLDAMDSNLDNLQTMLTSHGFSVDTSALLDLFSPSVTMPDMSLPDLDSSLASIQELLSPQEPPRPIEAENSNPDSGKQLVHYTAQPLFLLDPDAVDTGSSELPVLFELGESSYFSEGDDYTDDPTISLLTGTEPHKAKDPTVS

[7] = molecular target: Eukaryotic translation initiation factor 4E (Mus musculus, UniProt P63073); experiment: blockers of eIF4G binding by eIF4E – biochemical, TR-FRET, dose response (AID 855); assay type: functional;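 further: potency for disrupting eIF4E binding to eIF4GI seen as loss of FRET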
Sequence of Eukaryotic translation initiation factor 4E (P63073 whole entry): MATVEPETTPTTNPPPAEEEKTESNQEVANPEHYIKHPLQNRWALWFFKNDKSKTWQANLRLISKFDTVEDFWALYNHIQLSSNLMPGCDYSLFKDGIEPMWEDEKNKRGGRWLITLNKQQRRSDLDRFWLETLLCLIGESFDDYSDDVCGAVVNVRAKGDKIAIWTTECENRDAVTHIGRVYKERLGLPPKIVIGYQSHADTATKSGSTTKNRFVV

Estrogen receptor beta = Estrogen receptor beta (Homo sapiens, UniProt Q92731);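 further: recombinant ER-beta bound to coactivator SRC1 peptide in presence of estradiol agonist; inhibitors block coactivator peptide binding and lower the FRET signal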
Sequence of Estrogen receptor beta (Q92731 whole entry): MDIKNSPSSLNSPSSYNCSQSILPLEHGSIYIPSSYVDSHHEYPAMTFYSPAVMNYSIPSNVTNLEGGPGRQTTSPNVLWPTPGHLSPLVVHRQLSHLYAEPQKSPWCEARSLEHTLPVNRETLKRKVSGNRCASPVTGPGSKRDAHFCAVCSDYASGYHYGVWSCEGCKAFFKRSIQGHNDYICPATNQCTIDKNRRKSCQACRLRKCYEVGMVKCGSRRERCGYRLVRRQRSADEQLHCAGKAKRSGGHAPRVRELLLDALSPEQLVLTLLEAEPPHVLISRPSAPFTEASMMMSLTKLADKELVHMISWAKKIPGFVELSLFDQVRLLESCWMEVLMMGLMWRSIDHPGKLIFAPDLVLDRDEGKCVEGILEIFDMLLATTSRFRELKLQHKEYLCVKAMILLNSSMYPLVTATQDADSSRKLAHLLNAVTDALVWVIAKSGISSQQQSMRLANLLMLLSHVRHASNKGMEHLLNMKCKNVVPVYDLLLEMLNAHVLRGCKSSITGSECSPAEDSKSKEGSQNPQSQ

[8] = DRD fibroblast viability loss – cell-based, non-viral oncogenic, luminescence, dose response (AID 1934); assay type: functional; details: Homo sapiens
[9] = molecular target: T4, Short transient receptor potential channel 4 (Mus musculus, UniProt Q9QUQ5); experiment: calcium entry via TRPC4 opening agents – cell-based, HEK293 TRPC4/mu-opioid, Fluo-4 calcium, dose response (AID 434937); assay type: functional
T4 sequence (Q9QUQ5 whole entry): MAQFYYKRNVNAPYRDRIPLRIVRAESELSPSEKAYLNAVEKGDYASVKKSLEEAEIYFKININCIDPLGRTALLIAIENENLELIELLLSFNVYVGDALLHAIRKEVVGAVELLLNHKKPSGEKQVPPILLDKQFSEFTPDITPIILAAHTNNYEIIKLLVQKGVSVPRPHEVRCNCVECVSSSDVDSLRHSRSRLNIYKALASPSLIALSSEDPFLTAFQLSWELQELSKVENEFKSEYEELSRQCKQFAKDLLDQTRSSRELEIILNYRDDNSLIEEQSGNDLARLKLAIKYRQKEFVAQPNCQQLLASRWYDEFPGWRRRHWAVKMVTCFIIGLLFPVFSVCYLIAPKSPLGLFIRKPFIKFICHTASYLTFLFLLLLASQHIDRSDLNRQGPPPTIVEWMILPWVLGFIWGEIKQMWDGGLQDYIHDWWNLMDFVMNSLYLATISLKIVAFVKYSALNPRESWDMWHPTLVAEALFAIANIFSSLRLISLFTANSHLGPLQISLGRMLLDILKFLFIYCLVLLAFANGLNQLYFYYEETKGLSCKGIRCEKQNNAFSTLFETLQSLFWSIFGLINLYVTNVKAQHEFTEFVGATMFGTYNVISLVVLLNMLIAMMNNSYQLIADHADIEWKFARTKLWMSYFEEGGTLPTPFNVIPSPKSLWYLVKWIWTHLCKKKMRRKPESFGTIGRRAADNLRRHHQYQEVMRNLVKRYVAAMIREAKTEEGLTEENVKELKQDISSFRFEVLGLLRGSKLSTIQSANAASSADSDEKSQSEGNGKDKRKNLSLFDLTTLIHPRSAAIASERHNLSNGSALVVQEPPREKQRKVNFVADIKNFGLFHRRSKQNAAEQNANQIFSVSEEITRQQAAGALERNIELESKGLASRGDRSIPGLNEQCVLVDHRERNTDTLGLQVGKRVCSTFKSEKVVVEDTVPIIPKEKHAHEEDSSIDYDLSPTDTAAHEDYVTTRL

[10] = viability of PTEN-deleted HCT116 cells – cell-based, HCT116 PTEN knockout, dose response (AID 1047); assay type: functional;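 further: HCT116 colon tumor cells with PTEN knocked out; cells exposed to compound for 60 hours before readout; potency for loss of cell viability measured by luminescence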
BJ [11] = experiment: BJ-TERT-LT-ST fibroblast viability loss – cell-based, RAS-independent, luminescence, dose response (AID 1935); assay type: functional; details: Homo sapiens;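 further: BJ fibroblasts immortalized with TERT plus LT and ST oncogenes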
[12] = viability of HCT116 lacking mutant beta-catenin – cell-based, human colon tumor, dose response (AID 1045); assay type: functional;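 further: HCT116 colon tumor cells with beta catenin knocked out; cells exposed to compound for 60 hours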
BJ [13] = experiment: cells; assay type: functional, cell-based; details: Homo sapiens
[14] = molecular target: T5, DNA repair and recombination protein RAD54-like (Homo sapiens, UniProt Q92698); experiment: RAD54 Holliday junction migration blockers – biochemical, fluorescence, cherry-picked samples, dose series, confirmation (AID 651657); assay type: functional
T5 sequence (Q92698 whole entry): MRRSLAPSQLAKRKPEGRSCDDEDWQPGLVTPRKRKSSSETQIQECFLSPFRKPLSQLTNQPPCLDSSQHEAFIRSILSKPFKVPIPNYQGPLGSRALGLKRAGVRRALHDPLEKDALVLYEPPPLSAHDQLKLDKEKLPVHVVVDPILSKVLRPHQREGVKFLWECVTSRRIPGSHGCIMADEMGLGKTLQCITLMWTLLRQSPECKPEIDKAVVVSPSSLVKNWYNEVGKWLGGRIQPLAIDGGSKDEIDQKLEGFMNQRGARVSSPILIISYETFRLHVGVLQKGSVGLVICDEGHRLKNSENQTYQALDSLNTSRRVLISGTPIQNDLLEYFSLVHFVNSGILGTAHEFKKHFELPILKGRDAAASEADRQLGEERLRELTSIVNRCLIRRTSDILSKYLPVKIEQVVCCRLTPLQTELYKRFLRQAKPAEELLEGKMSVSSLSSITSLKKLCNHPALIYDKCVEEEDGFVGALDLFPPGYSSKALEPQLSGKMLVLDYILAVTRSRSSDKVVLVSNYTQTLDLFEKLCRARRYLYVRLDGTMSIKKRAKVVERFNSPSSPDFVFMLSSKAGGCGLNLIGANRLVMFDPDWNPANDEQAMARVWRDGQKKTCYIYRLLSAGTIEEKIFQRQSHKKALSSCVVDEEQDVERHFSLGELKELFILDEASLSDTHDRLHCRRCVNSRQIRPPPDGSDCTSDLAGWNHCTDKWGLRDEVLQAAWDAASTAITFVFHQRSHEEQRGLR

BJ [15] = experiment: BJ-TERT fibroblast viability loss – cell-based, RAS-independent, luminescence, dose response (AID 1933); assay type: functional; details: Homo sapiens
[16] = molecular target: T6, Rac GTPase-activating protein 1 (Homo sapiens, UniProt Q9H0H5); experiment: blockers of MgcRacGAP-driven Rac1 GTP hydrolysis – biochemical, ADP Hunter fluorescence, primary and confirmatory, confirmation (AID 624330); assay type: functional
T6 sequence (Q9H0H5 whole entry): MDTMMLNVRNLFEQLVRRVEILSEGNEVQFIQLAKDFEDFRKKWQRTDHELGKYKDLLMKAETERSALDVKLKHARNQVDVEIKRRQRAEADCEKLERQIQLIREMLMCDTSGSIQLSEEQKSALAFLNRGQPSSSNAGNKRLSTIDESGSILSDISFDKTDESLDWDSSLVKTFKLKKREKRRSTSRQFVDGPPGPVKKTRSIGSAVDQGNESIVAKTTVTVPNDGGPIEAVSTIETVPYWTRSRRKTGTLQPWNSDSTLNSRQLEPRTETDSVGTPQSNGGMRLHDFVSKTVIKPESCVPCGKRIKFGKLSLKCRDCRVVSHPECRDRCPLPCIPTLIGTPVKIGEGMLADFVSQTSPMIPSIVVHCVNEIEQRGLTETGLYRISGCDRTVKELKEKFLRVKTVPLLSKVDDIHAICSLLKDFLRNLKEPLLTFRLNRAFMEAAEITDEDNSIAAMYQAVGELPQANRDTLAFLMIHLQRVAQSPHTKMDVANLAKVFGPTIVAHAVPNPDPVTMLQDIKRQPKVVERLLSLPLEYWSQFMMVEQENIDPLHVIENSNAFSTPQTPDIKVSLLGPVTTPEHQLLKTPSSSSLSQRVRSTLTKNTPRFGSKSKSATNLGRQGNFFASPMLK

[17] = molecular target: T7, Ubiquitin-conjugating enzyme E2 N (Homo sapiens, UniProt P61088); assay type: functional;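 further: Dose-response confirmation in a TR-FRET assay detecting UBC13-driven polyubiquitin chain formation, inhibition measured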
T7 sequence (P61088 whole entry): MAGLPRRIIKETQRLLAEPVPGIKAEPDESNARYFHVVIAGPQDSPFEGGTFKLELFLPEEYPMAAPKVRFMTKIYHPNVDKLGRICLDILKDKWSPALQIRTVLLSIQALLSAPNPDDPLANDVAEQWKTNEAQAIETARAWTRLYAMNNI

[18] = intracellular Trypanosoma cruzi inhibitors in host cells – cell-based, plate reader, cherry-pick samples, set 3, dose response (AID 651818); assay type: functional;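 further: compounds incubated with infected cells for about four days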

O=C(CCC1CCCC1)Nc1ccc(Br)cn1
CC50 [1]: > 40 µM (active) | EC50 (H4): > 120 µM (not active) | EC50 [2]: 805 nM (active)

CN(C)CCCN=C(S)N(CCN(C)C)Cc1cc2cc3c(cc2nc1O)OCCO3
AC50 [3]: 5.91 µM (active)

O=C(CCC1CCCC1)Nc1nnc[nH]1
IC50 [4]: > 10 µM (inconclusive)

CC(C)Cc1ccc(C(C)C(=O)OCC(=O)c2c[nH]c3ccccc23)cc1 (configuration not stated)
IC50 [5]: 6.65 µM (not active)

Cn1c2c(c(=O)n(C)c1=O)C(CC(=O)Nc1ccccc1)C(=O)N2 (configuration not stated)
EC50 [6]: > 195 µM (not active) | IC50 [5]: 2.62 µM (not active)

Cn1c(N)c(C(=O)COC(=O)CC2CC3CCC2C3)c(=O)n(C)c1=O (configuration not stated)
IC50 [5]: 2.16 µM (active)

COc1ccc(C(C)=O)c2c(O)cccc12
IC50 [5]: 0.917 µM (not active)

Clc1ccc(OCCCn2cncn2)cc1Cl
IC50 [7]: > 64 µM (inactive)

Oc1cc2c(cc1C(c1ccc(Br)cc1)N1CCCC1)OCO2 (configuration not stated)
IC50 [7]: 50 µM (inactive)

Cc1n[nH]c(C)c1S(=O)(=O)N(CC(=O)N1CCc2ccccc21)c1ccc(C(C)C)cc1
IC50 (Estrogen receptor beta): > 50 µM (not active)

CCN(CC)CCCNC(=O)c1cc2c(-c3ccc(Cl)cc3)nn(C)c2s1
EC50 [8]: 10.4 µM (active) | EC50 [9]: 335 nM (active) | EC50 [10]: 5.12 µM (active) | EC50 (BJ [11]): 12.1 µM (inconclusive) | EC50 [12]: 4.29 µM (active) | EC50 (BJ [13]): 21.8 µM (active) | AC50 [14]: 35.9 µM (active) | EC50 (BJ [15]): 9.1 µM (active)

Cc1ccc(C)c(SCC(=O)NC(=O)Nc2ccc3c(c2)OCCO3)c1
IC50 [5]: < 0.4 µM (not active)

COc1ccccc1CN1CCN(C(=O)c2ccncc2)CC1
IC50 [7]: > 64 µM (inactive) | IC50 [16]: 120 µM (active)

CCC[C@@H](CN1CCC[C@H]1CN1C(N)=NC[C@H]1CC(C)C)N1C[C@@H]([C@H](C)CC)N(CCc2ccc(Cl)c(Cl)c2)C1=N
IC50 [17]: > 20 µM (inactive) | AC50 [3]: 12.4 µM (active)

CC(=O)Nc1cc(-c2cccc(C(=O)NCCN(C)C)c2)cn2c(-c3ccc(S(C)(=O)=O)cc3)cnc12
AC50 [3]: 2.7 µM (active) | AC50 [14]: 25.8 µM (active)

Cc1nc2nc(C)c(C)nc2nc1C
AC50 [14]: 34.7 µM (active)

C[C@@H]1CCCCO[C@@H](CN(C)Cc2ccc(Cl)c(Cl)c2)[C@@H](C)CN([C@H](C)CO)C(=O)c2cc(NC(=O)Nc3ccc4c(c3)OCO4)ccc2O1
AC50 [18]: 3.68 µM (active)

COc1ccc(-c2nc(C(=O)NCCCN3CCOCC3)cc3c2[nH]c2ccccc23)cc1OC
AC50 [3]: 4.84 µM (active) | AC50 [14]: 13.7 µM (active)
